Measurements from PMC10392864, “Chukrasia tabularis limonoid plays anti-inflammatory role by regulating NF-κB signaling pathway in lipopolysaccharide-induced macrophages” (Food & Nutrition Research, 2023).
Like-named read-outs stand apart in the source and are kept apart here.

Assays:
[1] = tested on: LPS-induced NO production in RAW264.7 cells; assay: LPS-induced NO production in RAW264.7 cells (Griess reaction); type: cell-based; settings: RAW264.7 cells, LPS 2 µg/mL, supernatant after 24 h, read-out: IC50, inhibitory activity on LPS-induced NO production in RAW264.7 cells
Procedure: The inhibitory activities of compounds 1–16 on LPS stimulated macrophages was determined by Griess reaction. The NO content was detected by the NO kit according to the protocol described earlier ([23]). RAW264.7 cells obtained from the China Center for Cultivated Studies (Shanghai, China) were maintained in DMEM containing 10% FBS, and under 5% CO2 at 37°C. Briefly, the cells were seeded in a 96-well plate (1 × 10^5 cells/well), after 8 h of pre-incubation under 5% CO2 at 37°C, compounds 1–16 were added to the well plate, respectively, for 12 h. […] The supernatant of the cell culture were collected 24 h later.

Huh-7 (hepatoma) cells = assay: Cytotoxicity, SRB method, Huh-7; type: cell-based, human
Procedure: (§1) Huh-7 (hepatoma), MCF-7 (human breast), KB (oral epithelial), Hela (cervical), H460 (lung), A-549 (lung), and HepG2 (hepatocellular) cancer cell lines (provided by Shanghai Cell Bank) were maintained in RPMI 1640 at 37 ℃, supplemented with 10% FBS. Cytotoxicity was determined by the SRB method, with 5-fluorouracil (5-FU) as a positive control. The IC50 value was calculated using the GraphPad prism program.

[2] = tested on: MCF-7 (human breast) cells; assay: Cytotoxicity, SRB method, MCF-7; type: cell-based
Procedure: as §1

A-549 (lung) cells = assay: Cytotoxicity, SRB method, A549; type: cell-based, human
Procedure: as §1

H460 (lung) cells = assay: Cytotoxicity, SRB method, H460; type: cell-based, human
Procedure: as §1

[3] = tested on: HepG2 (hepatocellular) cells; assay: Cytotoxicity, SRB method, HepG2; type: cell-based, human
Procedure: as §1

Hela (cervical) cells = assay: Cytotoxicity, SRB method, Hela; type: cell-based, human
Procedure: as §1

[4] = tested on: KB (oral epithelial) cells; assay: Cytotoxicity, SRB method, KB; type: cell-based, human
Procedure: as §1

[5] = tested on: Huh7, HepG2, KB, H460, Hela, A-549 and MCF-7 tumor cell lines; assay: Cytotoxicity, SRB method, statements on all seven tumor cell lines; type: cell-based, human; settings: for cytotoxicity on seven tumor cell lines (in words): Huh7, HepG2, KB, H460, Hela, A-549, MCF-7; for IC50: all seven cell lines, SRB method, footnote of Table S3, read-out: IC50, cytotoxicity against all cell lines tested
Procedure: The cytotoxicity of the separated compounds was assessed against seven tumor cell lines, Huh7, HepG2, KB, H460, Hela, A-549 and MCF-7 ([40], [41]).
as §1

[6] = Cytotoxicity, SRB method, Huh-7; type: cell-based, human; settings: human, Huh-7 (hepatoma) cells
Procedure: as §1

[7] = Cytotoxicity, SRB method, MCF-7; type: cell-based, human; settings: human, MCF-7 (human breast) cells
Procedure: as §1

[8] = Cytotoxicity, SRB method, A549; type: cell-based, human; settings: human, A-549 (lung) cells
Procedure: as §1

[9] = Cytotoxicity, SRB method, H460; type: cell-based, human; settings: human, H460 (lung) cells
Procedure: as §1

[10] = Cytotoxicity, SRB method, HepG2; type: cell-based, human; settings: human, HepG2 (hepatocellular) cells
Procedure: as §1

[11] = Cytotoxicity, SRB method, Hela; type: cell-based, human; settings: human, Hela (cervical) cells
Procedure: as §1

[12] = Cytotoxicity, SRB method, KB; type: cell-based, human; settings: human, KB (oral epithelial) cells
Procedure: as §1

xylene-induced ear edema = assay: Ear edema induced by xylene in mice; type: in vivo; settings: 200 mg/kg intragastric, 1 h before xylene, ears weighed 1 h after xylene
Excerpt: Male ICR mice (18–20 g) were provided by the Laboratory Animal Center, Fujian Medical University. […] One hour after xylene treatment, the mice were sacrificed by cervical dislocation. […] The weight difference of two plugs was used to measure the edema response (Table S1). Animal care and use complied with institutional guidelines, and the program was affirmed by the Experimental Animal Management Committee of Fujian Medical University.

COC(=O)CC1C2(C)CC34OC5(C)OC6(C7CC(=O)OC(c8ccoc8)C7(C)CCC6(O5)C13C)C(OC(=O)C(C)C)C4(O)C2OC(=O)C(C)C (stereo not shown) [Compound 5, phragmalin, 3, 30-di-isobutyrates]
IC50 [1]: 35.6 ± 7.23 µM | IC50 (Huh-7 (hepatoma) cells): > 100 µM | IC50 [2]: > 100 µM | IC50 (A-549 (lung) cells): > 100 µM | IC50 (H460 (lung) cells): > 100 µM | IC50 [3]: 78 ± 12.7 µM | IC50 (Hela (cervical) cells): > 100 µM | IC50 [4]: > 100 µM

COc1ccc2c(c1)c(CC(=O)O)c(C)n2C(=O)c1ccc(Cl)cc1 [Indomethacin, reference compound]
IC50 ([1]; Mus musculus): 26.2 ± 1.56 µM

3R, 23S, 24R, 25- tetraol- 7- glyoxiene [Compound 14]
IC50 [1]: 11.2 ± 1.12 µM

21β-methoxy-25-ene-bitrinonediol [Compound 7]
IC50 [1]: > 100 µM | IC50 (Huh-7 (hepatoma) cells): 94.7 ± 12.5 µM | IC50 [2]: > 100 µM | IC50 (A-549 (lung) cells): > 100 µM | IC50 (H460 (lung) cells): > 100 µM | IC50 [3]: > 100 µM | IC50 (Hela (cervical) cells): 58.4 ± 9.09 µM | IC50 [4]: 40.9 ± 6.56 µM | cytotoxicity on seven tumor cell lines (in words) [5]: moderate cytotoxicity

CO[C@@H]1O[C@@H]([C@H](O)C(C)(C)OC)C[C@H]1[C@@H]1CC[C@]2(C)C3=CC[C@H]4C(C)(C)C(=O)CC[C@]4(C)[C@H]3CC[C@@]12C [Compound 12, 21α, 25-dimethyl-melianodiol]
IC50 [1]: 13.9 ± 5.33 µM

O=c1[nH]cc(F)c(=O)[nH]1 [5-Fluorouracil, 5-fluorouracil, reference compound]
IC50 [6]: 36.2 ± 4.17 µM | IC50 [7]: 23.4 ± 1.22 µM | IC50 [8]: 36.2 ± 1.73 µM | IC50 [9]: 13.7 ± 2.85 µM | IC50 [10]: 30.5 ± 1.54 µM | IC50 [11]: 2.31 ± 0.98 µM | IC50 [12]: 19.5 ± 1.24 µM

21β- methylmelianodiol [Compound 9]
IC50 [1]: 52.5 ± 8.98 µM | IC50 [2]: > 100 µM | IC50 (A-549 (lung) cells): 66 ± 10.1 µM | IC50 [3]: 44.3 ± 6 µM | IC50 (Hela (cervical) cells): 60 ± 4.19 µM | IC50 [4]: 56.6 ± 8.3 µM | cytotoxicity on seven tumor cell lines (in words) [5]: potent inhibitory activities

24-hydroxyl-7, 25-dien-3-one [Compound 10]
IC50 [1]: 95.1 ± 9.4 µM | IC50 [5]: > 100 µM

CCC(=O)OC1C2(O)C(OC(=O)CC(C)C)C3(C)CC24OC2(C)OC15C1CC(=O)OC(C6=CC(O)OC6=O)C1(C)CCC5(O2)C4(C)C3CC(=O)OC (stereo not shown) [Compound 3, Chukrasin G]
IC50 ([1]; Mus musculus): 10.5 ± 0.98 µM | IC50 [6]: > 100 µM | IC50 [7]: > 100 µM | IC50 [8]: > 100 µM | IC50 [9]: > 100 µM | IC50 [10]: 99.4 ± 10.6 µM | IC50 [11]: > 100 µM | IC50 [12]: > 100 µM

CC(C)(O)[C@@H](O)[C@H]1C[C@@H]([C@@H]2CC[C@]3(C)C4=CC[C@H]5C(C)(C)C(=O)CC[C@]5(C)[C@H]4CC[C@@]23C)[C@H](O)O1 [Compound 11, melianodiol]
IC50 [1]: 13.3 ± 2.67 µM | IC50 (Huh-7 (hepatoma) cells): 79.8 ± 9.24 µM | IC50 [2]: 52.6 ± 7.2 µM | IC50 (A-549 (lung) cells): 45.1 ± 6.33 µM | IC50 (H460 (lung) cells): 73.2 ± 10.5 µM | IC50 [3]: 80 ± 5.26 µM | IC50 (Hela (cervical) cells): 86.3 ± 9.28 µM | IC50 [4]: 63.5 ± 8.25 µM | cytotoxicity on seven tumor cell lines (in words) [5]: potent inhibitory activities

CC(C)(O)C1OCC(C2CCC3(C)C4=CCC5C(C)(C)C(=O)CCC5(C)C4CCC23C)CC1O (stereo not shown) [Compound 6, bourjotinolone A]
IC50 [1]: 35.6 ± 4.29 µM | IC50 (Huh-7 (hepatoma) cells): 29.6 ± 7.69 µM | IC50 [2]: > 100 µM | IC50 (A-549 (lung) cells): 43.6 ± 10.6 µM | IC50 [3]: 59.3 ± 4.67 µM | IC50 (Hela (cervical) cells): 29.3 ± 7.11 µM | cytotoxicity on seven tumor cell lines (in words) [5]: potent inhibitory activities

C=C(C)C(O)C(O)CC(C)C1CCC2(C)C3=CCC4C(C)(C)C(=O)CCC4(C)C3CCC12C (stereo not shown) [Compound 8, (13a, 14b, 17a, 20S, 23R, 24R)-23, 24-dihydro-xylanosta-7, 25-dien-3-one]
IC50 [1]: 46.1 ± 6.11 µM | IC50 [5]: > 100 µM

CO[C@H]1O[C@@H]([C@H](O)C(C)(C)OC)C[C@H]1[C@@H]1CC[C@]2(C)C3=CC[C@H]4C(C)(C)C(=O)CC[C@]4(C)[C@H]3CC[C@@]12C [Compound 13, 21β, 25-dimethylmelianodiol]
IC50 [1]: 24.9 ± 4.6 µM

CC1(C)OC[C@H]([C@@H]2CC[C@]3(C)C4=CC[C@H]5C(C)(C)C(=O)CC[C@]5(C)[C@H]4CC[C@@]23C)C[C@@H](O)[C@@H]1O [Compound 16, hispidone]
IC50 [1]: > 100 µM

CC(=O)Oc1ccccc1C(=O)O [Aspirin]
Edema Degree (±SD) (xylene-induced ear edema): 4.99 ± 0.30 mg | Inhibition Rate of ear edema (xylene-induced ear edema): 36.30%

C[C@@H](C[C@@H](O)[C@H](O)C(C)(C)O)[C@@H]1CC[C@]2(C)C3=CC[C@H]4C(C)(C)C(=O)CC[C@]4(C)[C@H]3CC[C@@]12C [Compound 15, piscidinol A]
IC50 [1]: 33.6 ± 4.77 µM

COC(=O)CC1C2(C)CC34OC5(C)OC6(C7CC(=O)OC(C8=CC(O)OC8=O)C7(C)CCC6(O5)C13C)C(OC(=O)C(C)C)C4(O)C2OC(=O)C(C)C (stereo not shown) [Compound 4, phragmalin, 22, 23-dihydro-23-hydroxy-21-oxo-3, 30-di-isobutyrates]
IC50 [1]: 21.9 ± 5.61 µM | IC50 [5]: > 100 µM

COC(=O)CC1C2(C)CC34OC5(C)OC6(C7CC(=O)OC(C8=CC(=O)OC8O)C7(C)CCC6(O5)C13C)C(OC(=O)C(C)C)C4(O)C2OC(=O)C(C)C (stereo not shown) [Compound 1, Phragmalin A]
IC50 ([1]; Mus musculus): 10.3 ± 0.39 µM
